From article PMC9596378, “Discovery and molecular basis of subtype-selective cyclophilin inhibitors” (Nature Chemical Biology, 2022)
Values joined by “and” are separate entries in the source; they are usually repeats but may differ in a detail not shown here. Equal entries are not always repeated. Where two headings read alike, the source gives them in different places.

Key:
CypD = CypD (Homo sapiens, UniProt P30405); assay: Chymotrypsin coupled prolyl-isomerase assay; settings: for selectivity for CypD against the remaining six cyclophilins / selectivity for CypD over CypA / selectivity for CypD over CypA and PPIL1 / selectivity for CypD over CypE and CypB: prolyl-isomerase IC50
CypD, sequence (P30405 45-207): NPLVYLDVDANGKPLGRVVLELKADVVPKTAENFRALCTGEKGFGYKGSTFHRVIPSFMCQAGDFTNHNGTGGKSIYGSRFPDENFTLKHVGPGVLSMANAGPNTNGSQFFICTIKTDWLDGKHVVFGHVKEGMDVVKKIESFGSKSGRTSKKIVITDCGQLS

CypB = target: T1, CypB (Homo sapiens, UniProt P23284); assay: biochemical
T1 construct: PPIB (UniProtKB Entry P23284: residues 34–216); His6 with TEV site (2BT vector leader) (N); made in house; host or cells: E. coli BL21(DE3)
T1 sequence (P23284 34-216): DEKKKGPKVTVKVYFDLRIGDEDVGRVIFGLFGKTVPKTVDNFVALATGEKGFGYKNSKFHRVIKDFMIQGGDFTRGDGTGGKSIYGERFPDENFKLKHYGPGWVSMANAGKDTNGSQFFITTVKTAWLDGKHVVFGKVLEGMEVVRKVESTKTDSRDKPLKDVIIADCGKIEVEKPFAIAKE
Summary of the method: (§1)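 Cyclophilin (5 nM final) in 25 mM HEPES pH 7.3, 100 mM NaCl, 0.01% Triton X-100 was preincubated with compound (0.25% DMSO) 5 min at 2–3 °C, then with 25 µM α-chymotrypsin 5 min. Suc-AAPF-AMC (5 µM, in LiCl/trifluoroethanol) started the reaction; AMC fluorescence read every 1 s for 330 s.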

Cyp40 = Cyp40 (Homo sapiens, UniProt Q08752); assay: Chymotrypsin coupled prolyl-isomerase assay
Cyp40, sequence (Q08752 1-183): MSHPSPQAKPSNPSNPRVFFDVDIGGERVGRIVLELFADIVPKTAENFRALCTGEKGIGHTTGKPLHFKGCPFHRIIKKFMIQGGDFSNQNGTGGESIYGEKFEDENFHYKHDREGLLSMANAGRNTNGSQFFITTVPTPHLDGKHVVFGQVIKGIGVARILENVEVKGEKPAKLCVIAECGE
Summary of the method: as §1

NKTR = target: T2, NKTR (Homo sapiens, UniProt P30414); assay: Chymotrypsin coupled prolyl-isomerase assay; type: biochemical
T2 construct: NKTR (UniProtKB Entry P30414: residues 7–179); host or cells: E. coli BL21(DE3)
T2 sequence (P30414 7-179): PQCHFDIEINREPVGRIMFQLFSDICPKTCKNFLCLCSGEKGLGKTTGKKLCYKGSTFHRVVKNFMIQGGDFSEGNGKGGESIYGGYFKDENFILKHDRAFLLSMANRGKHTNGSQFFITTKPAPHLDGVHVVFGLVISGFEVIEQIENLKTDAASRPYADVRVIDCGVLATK
Protocol: Adapting a previously described protocol[51], with an Agilent Bravo Velocity 11 with a 384ST head, 90 µL assay buffer (25 mM HEPES pH 7.3, 100 mM NaCl, 0.01% Triton X-100) containing 5.28 nM cyclophilin was added into a flat, clear-bottom, black 384-well plate pre-chilled in a Corning CoolBox at 2–3 °C. Five microliters of compound pre-dissolved in 5% DMSO/assay buffer was then added to appropriate wells and incubated at 2–3 °C for 5 min. Five microliters of 0.5 mM α-chymotrypsin from bovine pancreas (Type II, lyophilized powder, Millipore-Sigma) in 20% 1 mM HCl/Assay Buffer was then added to each well and incubated at 2–3 °C for 5 min. […] Using the internal liquid handling system of the FLIPR, 1 µL 0.5 mM Suc-AAPF-AMC (Chymotrypsin Substrate II, Millipore-Sigma) dissolved in 0.55 M LiCl/2,2,2-trifluoroethanol was added to each well, which was then mixed for 5 s, followed by immediate fluorescence measurements every 1 s for 330 s using a 360–380 nm excitation LED module and a 400–460 nm emission filter. Final concentrations of the plate include 5 nM cyclophilin, 0.25% DMSO, 25 µM α-chymotrypsin, 5 µM Suc-AAPF-AMC. Raw fluorescence data was analyzed by non-linear regression analysis with Prism v.9 by fitting one-phase association curves to each well. Analyses were halted after the calculated maximum fluorescent value owing to observed fluorescent bleaching during the sustained fluorescent plateau. Rate constants calculated for each well (s^−1) were then normalized to substrate only (no prolyl-isomerase) and enzyme + substrate only controls. IC50 values were calculated as the value at which 50% inhibition was achieved on the non-linear regression fitted curve of each compound.

PPIL1 = target: T3, PPIL1 (Homo sapiens, UniProt Q9Y3C6); assay: Chymotrypsin coupled prolyl-isomerase assay; type: biochemical
T3 construct: PPIL1 (UniProtKB Entry Q9Y3C6: residues 1–166); made in house; host or cells: E. coli BL21(DE3)
T3 sequence (Q9Y3C6 1-166): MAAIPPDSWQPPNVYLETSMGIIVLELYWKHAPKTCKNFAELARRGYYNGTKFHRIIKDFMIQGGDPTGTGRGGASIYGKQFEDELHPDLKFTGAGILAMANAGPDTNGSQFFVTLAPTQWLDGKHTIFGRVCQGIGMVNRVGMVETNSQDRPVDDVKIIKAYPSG

PPWD1 = target: T4, PPWD1 (Homo sapiens, UniProt Q96BP3); assay: Chymotrypsin coupled prolyl-isomerase assay; type: biochemical
T4 construct: PPWD1 (UniProtKB Entry Q96BP3: residues 473–646); host or cells: E. coli BL21(DE3)
T4 sequence (Q96BP3 473-646): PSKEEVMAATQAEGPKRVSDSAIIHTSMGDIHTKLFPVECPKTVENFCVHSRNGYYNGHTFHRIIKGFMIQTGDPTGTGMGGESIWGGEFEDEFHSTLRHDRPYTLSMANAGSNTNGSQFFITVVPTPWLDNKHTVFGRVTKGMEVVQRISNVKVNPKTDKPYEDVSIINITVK

[1] = IC50 CypD, Independent replicate 1, mean±SEM of 3 technical replicates
[2] = IC50 CypD, Independent replicate 2
[3] = IC50 CypD, Independent replicate 3
[4] = IC50 CypD, Independent replicate 4
[5] = CypB (comparator for CypB E121S), read-out: Mutant Cyclophilin Prolyl Isomerase Inhibition IC50 Values, CypB
[6] = Independent replicate 2, read-out: IC50 CypB
[7] = Independent replicate 3, read-out: IC50 CypB
[8] = Independent replicate 4, read-out: IC50 CypB
[9] = prolyl-isomerase inhibition, 5 nM cyclophilin, read-out: IC50 CypB
[10] = prolyl-isomerase inhibition, read-out: IC50 CypB
[11] = wild-type CypB, read-out: Wild-Type Cyclophilin Prolyl Isomerase Inhibition IC50 Values, CypB
[12] = IC50 Cyp40, Independent replicate 1
[13] = IC50 Cyp40, Independent replicate 2
[14] = IC50 Cyp40, Independent replicate 3
[15] = IC50 Cyp40, Independent replicate 4
[16] = Wild-Type Cyclophilin Prolyl Isomerase Inhibition IC50 Values, Cyp40, wild-type Cyp40
[17] = Independent replicate 1, read-out: IC50 NKTR
[18] = Independent replicate 2, read-out: IC50 NKTR
[19] = Independent replicate 3, read-out: IC50 NKTR
[20] = Independent replicate 4, read-out: IC50 NKTR
[21] = prolyl-isomerase inhibition, 5 nM cyclophilin, read-out: IC50 NKTR
[22] = wild-type NKTR, read-out: Wild-Type Cyclophilin Prolyl Isomerase Inhibition IC50 Values, NKTR
[23] = Independent replicate 1, read-out: IC50 PPIL1
[24] = Independent replicate 2, read-out: IC50 PPIL1
[25] = Independent replicate 3, read-out: IC50 PPIL1
[26] = Independent replicate 4, read-out: IC50 PPIL1
[27] = prolyl-isomerase inhibition, 5 nM cyclophilin, read-out: IC50 PPIL1
[28] = wild-type PPIL1, read-out: Wild-Type Cyclophilin Prolyl Isomerase Inhibition IC50 Values, PPIL1
[29] = Independent replicate 1, read-out: IC50 PPWD1
[30] = Independent replicate 2, read-out: IC50 PPWD1
[31] = Independent replicate 3, read-out: IC50 PPWD1
[32] = Independent replicate 4, read-out: IC50 PPWD1
[33] = prolyl-isomerase inhibition, 5 nM cyclophilin, read-out: IC50 PPWD1
[34] = wild-type PPWD1, read-out: Wild-Type Cyclophilin Prolyl Isomerase Inhibition IC50 Values, PPWD1

In the case of `NCCOCCNC(=O)[C@@H]1CCNC(=O)/C=C/C(=O)N2CCC[C@](Cc3ccccc3)(C2)C(=O)N[C@@H](Cc2ccc(-c3ccc(CC(C(=O)O)C(=O)O)cc3)cc2)C(=O)NCc2ccccc2CC(=O)N1` [Compound B52], the IC50 (CypD) is reported as 10 ± 4 nM, the IC50 (CypD; [1]) is reported as 10 ± 2 nM and the IC50 (CypD; [2]) is reported as 11 ± 4 nM. It also gave an IC50 (CypD; [3]) of 11 ± 5 nM, an IC50 (CypD; [4]) of 10 ± 5 nM and an IC50 (CypD; IC50 CypD, prolyl-isomerase inhibition) of 10 nM. For the same compound, the IC50 (CypD; Wild-Type Cyclophilin Prolyl Isomerase Inhibition IC50 Values, CypD, wild-type CypD) was 10 nM, the “selectivity for CypD against the remaining six cyclophilins” value (CypD) was greater than 900 fold and the “selectivity for CypD over CypA” value (CypD) was > 100 fold and 100 fold. For the same compound, the “selectivity for CypD over CypA and PPIL1” value (CypD) was 60- to 900 fold, the “selectivity for CypD over CypE and CypB” value (CypD) was 15- to 30 fold and the IC50 (CypD; read-out: IC50 CypD, prolyl-isomerase inhibition, 5 nM cyclophilin, Suc-AAPF-AMC, mean±s.e.m. of 3 technical replicates (B52, B53, C3A wild-type: mean±s.d. of 4 independent replicates)) was 10 nM. For the same compound, the IC50 (CypB; [5]) was 200 nM, the IC50 (CypB; Independent replicate 1, read-out: IC50 CypB) was 200 ± 50 nM and the IC50 (CypB; [6]) was 190 ± 30 nM. The IC50 (CypB; [7]) was 210 ± 40 nM, the IC50 (CypB; [8]) was 200 ± 100 nM and the IC50 (CypB; [9]) was 210 nM. The IC50 (CypB; [10]) was 210 nM, the IC50 (CypB; [11]) was 210 nM and the IC50 (Cyp40; [12]) was 13000 ± 5000 nM. The IC50 (Cyp40; [13]) was 30000 ± 20000 nM, the IC50 (Cyp40; [14]) was 20000 ± 10000 nM and the IC50 (Cyp40; [15]) was 20000 ± 10000 nM. It also gave an IC50 (Cyp40; [16]) of 22000 nM, an IC50 (NKTR; [17]) greater than 100000 nM and an IC50 (NKTR; [18]) greater than 100000 nM. For the same compound, the IC50 (NKTR; [19]) was greater than 100000 nM, the IC50 (NKTR; [20]) was greater than 100000 nM and the IC50 (NKTR; [21]) was greater than 100000 nM. For the same compound, the IC50 (NKTR; prolyl-isomerase inhibition, read-out: IC50 NKTR) was greater than 100000 nM, the IC50 (NKTR; [22]) was greater than 100000 nM and the IC50 (PPIL1; [23]) was 5000 ± 2000 nM. The IC50 (PPIL1; [24]) was 9000 ± 3000 nM, the IC50 (PPIL1; [25]) was 6000 ± 2000 nM and the IC50 (PPIL1; [26]) was 5000 ± 2000 nM. For the same compound, the IC50 (PPIL1; [27]) was 6000 ± 2000 nM, the IC50 (PPIL1; prolyl-isomerase inhibition, read-out: IC50 PPIL1) was 6000 nM and the IC50 (PPIL1; [28]) was 6000 nM. It also gave an IC50 (PPWD1; [29]) greater than 100000 nM, an IC50 (PPWD1; [30]) greater than 100000 nM and an IC50 (PPWD1; [31]) greater than 100000 nM. The IC50 (PPWD1; [32]) was greater than 100000 nM, the IC50 (PPWD1; [33]) was greater than 100000 nM and the IC50 (PPWD1; prolyl-isomerase inhibition, read-out: IC50 PPWD1) was greater than 100000 nM. For the same compound, the IC50 (PPWD1; [34]) was greater than 100000 nM.
`C[N+]1=C(C=CC=CC=C2N(CCCCCC(=O)NCCNC(=O)C3CCNC(=O)C=CC(=O)N4CCCC(Cc5ccccc5)(C4)C(=O)NC(Cc4ccc(-c5ccc(C(CC(=O)O)CC(=O)O)cc5)cc4)C(=O)NCc4ccccc4CC(=O)N3)c3ccccc3C2(C)C)C(C)(C)c2ccccc21` (stereo not drawn) [Compound B53-Cy5] gave an IC50 (CypD; read-out: Wild-Type Cyclophilin Prolyl Isomerase Inhibition IC50 Values, CypD, wild-type CypD) of 29 nM, an IC50 (CypB; [9]) of roughly 1500 nM and an IC50 (CypB; [11]) of 1500 nM. It also gave an IC50 (Cyp40; read-out: Wild-Type Cyclophilin Prolyl Isomerase Inhibition IC50 Values, Cyp40, wild-type Cyp40) greater than 2000 nM, an IC50 (NKTR; [22]) greater than 2000 nM and an IC50 (PPIL1; [28]) greater than 2000 nM. For the same compound, the IC50 (PPWD1; [34]) was greater than 2000 nM.
In the case of `NCCOCCNC(=O)[C@@H]1CCNC(=O)/C=C/C(=O)N2CCC[C@](Cc3ccccc3)(C2)C(=O)N[C@@H](Cc2ccc(-c3ccc(C(CC(=O)O)CC(=O)O)cc3)cc2)C(=O)NCc2ccccc2CC(=O)N1` [Compound B53], the IC50 (CypD) is reported as 57 nM, the IC50 (CypD; [1]) is reported as 40 ± 10 nM and the IC50 (CypD; [2]) is reported as 50 ± 20 nM. The IC50 (CypD; [3]) was 60 ± 20 nM, the IC50 (CypD; [4]) was 60 ± 30 nM and the “selectivity for CypD against the remaining six cyclophilins” value (CypD) was greater than 900 fold. The “selectivity for CypD over CypA” value (CypD) was > 100 fold and 100 fold, the “selectivity for CypD over CypA and PPIL1” value (CypD) was 60- to 900 fold and the “selectivity for CypD over CypE and CypB” value (CypD) was 15- to 30 fold. For the same compound, the IC50 (CypB; [5]) was 500 nM, the IC50 (CypB; [6]) was 1600 ± 600 nM and the IC50 (CypB; [7]) was 1100 ± 500 nM. It also gave an IC50 (CypB; [8]) of 1300 ± 800 nM, an IC50 (CypB; [9]) of 1100 nM and an IC50 (CypB; [10]) of 1100 nM. It also gave an IC50 (CypB; [11]) of 1100 nM, an IC50 (Cyp40; [12]) greater than 50000 nM and an IC50 (Cyp40; [13]) greater than 50000 nM. For the same compound, the IC50 (Cyp40; [14]) was greater than 50000 nM, the IC50 (Cyp40; [15]) was greater than 50000 nM and the IC50 (Cyp40; IC50 Cyp40, prolyl-isomerase inhibition, 5 nM cyclophilin) was greater than 50000 nM. The IC50 (Cyp40; [16]) was greater than 50000 nM, the IC50 (NKTR; [17]) was greater than 50000 nM and the IC50 (NKTR; [18]) was greater than 50000 nM. For the same compound, the IC50 (NKTR; [19]) was greater than 50000 nM, the IC50 (NKTR; [20]) was greater than 50000 nM and the IC50 (NKTR; [21]) was greater than 50000 nM. The IC50 (NKTR; [22]) was greater than 50000 nM, the IC50 (PPIL1; [23]) was roughly 30000 nM and the IC50 (PPIL1; [24]) was greater than 50000 nM. For the same compound, the IC50 (PPIL1; [25]) was greater than 50000 nM, the IC50 (PPIL1; [26]) was greater than 50000 nM and the IC50 (PPIL1; [27]) was greater than 50000 nM. For the same compound, the IC50 (PPIL1; [28]) was greater than 50000 nM, the IC50 (PPWD1; [29]) was greater than 50000 nM and the IC50 (PPWD1; [30]) was greater than 50000 nM. The IC50 (PPWD1; [31]) was greater than 50000 nM, the IC50 (PPWD1; [32]) was greater than 50000 nM and the IC50 (PPWD1; [33]) was greater than 50000 nM. For the same compound, the IC50 (PPWD1; [34]) was greater than 50000 nM.
